Reference: patent publication US20050245563A1 (Millennium Pharmaceuticals, Inc., priority 2003, published 2005)
Where a name gives a salt, the structure may show the parent alone.

The molecules below were run against T1, human Chk1 (GST-Chk1) (Homo sapiens, UniProt O14757) (assay: Chk1 DELFIA kinase assay (2 nM GST-Chk1, 600 μM ATP)). Conditions: Biotin-GLYRSPSMPEN-amide substrate.
T1 construct: made in house; host or cells: insect cells (baculovirus, Bac-to-Bac)
T1 sequence (O14757 1-476): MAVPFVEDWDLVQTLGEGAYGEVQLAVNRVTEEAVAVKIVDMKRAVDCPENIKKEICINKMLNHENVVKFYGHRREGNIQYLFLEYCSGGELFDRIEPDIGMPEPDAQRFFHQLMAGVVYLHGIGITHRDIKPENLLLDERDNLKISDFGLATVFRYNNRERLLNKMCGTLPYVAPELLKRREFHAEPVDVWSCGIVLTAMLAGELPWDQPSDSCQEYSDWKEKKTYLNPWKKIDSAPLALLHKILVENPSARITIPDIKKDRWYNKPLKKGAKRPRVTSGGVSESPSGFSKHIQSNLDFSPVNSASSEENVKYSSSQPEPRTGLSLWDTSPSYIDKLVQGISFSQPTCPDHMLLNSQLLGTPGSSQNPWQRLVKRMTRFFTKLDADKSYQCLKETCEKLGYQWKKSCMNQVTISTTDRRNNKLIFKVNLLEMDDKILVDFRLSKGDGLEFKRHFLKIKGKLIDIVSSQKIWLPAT
Assay type: biochemical
In short: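 Enzyme is N-terminal GST-Chk1 from baculovirus/insect cells, assayed with 1 μM biotin-GLYRSPSMPEN-amide in pH 7.5 Tris buffer, 4% DMSO and 10 mM MgCl2 for 50 min at room temperature. EDTA-stopped reactions were captured on NeutrAvidin. Phospho-peptide was detected by anti-phospho-Ser216-Cdc25c antibody with europium-labeled secondary and time-resolved fluorescence.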

IC50, < 1000 nM:
COCCc1[nH]nc2c1c(=O)n(CCCN)c1ccc(C#CCN3CCCC3)cc21 [Example 305, 5-(3-Amino-propyl)-3-(2-methoxy-ethyl)-8-(3-pyrrolidin-1-yl-prop-1-ynyl)-2,5-dihydro-pyrazolo[4,3-c]quinolin-4-one]
Cc1[nH]nc2c1c(=O)n(CCCN)c1ccc(-c3ccc(C#N)cc3)cc21 [Example 306, 4-[5-(3-Amino-propyl)-3-methyl-4-oxo-4,5-dihydro-2H-pyrazolo[4,3-c]quinolin-8-yl]-benzonitrile]
Cc1[nH]nc2c1c(=O)n(CCCN)c1ccc(-c3ccc(N(C)C)cc3)cc21 [Example 307, 5-(3-Amino-propyl)-8-(4-dimethylamino-phenyl)-3-methyl-2,5-dihydro-pyrazolo [4,3-c]quinolin-4-one]
Cc1[nH]nc2c1c(=O)n(CCCN)c1ccc(-c3cccnc3)cc21 [Example 308, 5-(3-Amino-propyl)-3-methyl-8-pyridin-3-yl-2,5-dihydro-pyrazolo[4,3-c]quinolin-4-one]
Cc1[nH]nc2c1c(=O)n(CCCN)c1ccc(-c3ccoc3)cc21 [Example 309, 5-(3-Amino-propyl)-8-furan-3-yl-3-methyl-2,5-dihydro-pyrazolo[4,3-c]quinolin-4-one]
Cc1[nH]nc2c1c(=O)n(CCCN)c1ccc(N3CCCC3)cc21 [Example 310, 5-(3-Amino-propyl)-3-methyl-8-pyrrolidin-1-yl-2,5-dihydro-pyrazolo[4,3-c]quinolin-4-one]
CCc1[nH]nc2c1c(=O)n(CCCN)c1ccc(Cl)cc21 [Example 311, 5-(3-Amino-propyl)-8-chloro-3-ethyl-2,5-dihydro-pyrazolo[4,3-c]quinolin-4-one hydrochloride]
CCOCCc1[nH]nc2c1c(=O)n(CCCN)c1ccc(Cl)cc21 [Example 320, 5-(3-Amino-propyl)-8-chloro-3-(2-ethoxy-ethyl)-2,5-dihydro-pyrazolo[4,3-c]quinolin-4-one]
CCCOCCc1[nH]nc2c1c(=O)n(CCCN)c1ccc(Cl)cc21 [Example 321, 5-(3-Amino-propyl)-8-chloro-3-(2-propoxy-ethyl)-2,5-dihydro-pyrazolo[4,3-c]quinolin-4-one]
CCCCOCCc1[nH]nc2c1c(=O)n(CCCN)c1ccc(Cl)cc21 [Example 322, 5-(3-Amino-propyl)-3-(2-butoxy-ethyl)-8-chloro-2,5-dihydro-pyrazolo[4,3-c]quinolin-4-one]
NCCCn1c(=O)c2c(C3CCOC3)[nH]nc2c2cc(Cl)ccc21 (stereo not drawn) [Example 327, 5-(3-Amino-propyl)-8-chloro-3-(tetrahydro-furan-3-yl)-2,5-dihydro-pyrazolo[4,3-c]quinolin-4-one]
NCCCn1c(=O)c2c(CCO)[nH]nc2c2cc(C#CCN3CCCC3)ccc21 [Example 328, 5-(3-Amino-propyl)-3-(2-hydroxy-ethyl)-8-(3-pyrrolidin-1-yl-prop-1-ynyl)-2,5-dihydro-pyrazolo [4,3-c]quinolin-4-one]
CCc1[nH]nc2c1c(=O)n(CCCN)c1ccc(C#CCN3CCCC3)cc21 [Example 329, 5-(3-Amino-propyl)-3-ethyl-8-(3-pyrrolidin-1-yl-prop-1-ynyl)-2,5-dihydro-pyrazolo[4,3-c]quinolin-4-one]
CCc1[nH]nc2c1c(=O)n(CCCN)c1ccc(CCCN3CCCC3)cc21 [Example 330, 5-(3-Amino-propyl)-3-ethyl-8-(3-pyrrolidin-1-yl-propyl)-2,5-dihydro-pyrazolo[4,3-c]quinolin-4-one]
CCc1[nH]nc2c1c(=O)n(CCCNC)c1ccc(Cl)cc21 [Example 331, 8-Chloro-3-ethyl-5-(3-methylamino-propyl)-2,5-dihydro-pyrazolo[4,3-c]quinolin4-one]
